Entries after “also recorded” stand apart in the source; their conditions may differ.
Experiments:
Type in all cases: cell-based
[1] = tested on: acetyl-Histone H3 in Human lung cancer A549 cells; experiment: Immunostaining of HDAC associated proteins; settings: 7.5 μg/mL, 6 hrs (FIG. 3(c))
Procedure: (§1) Rat C6 glioma cells, Human breast cancer MCF-7 cells, and Human lung cancer A549 cells were seeded in 6-well plates. After 24 hrs of incubation in medium+10 BSA, Human breast cancer MCF-7 cells were treated with NBM-HB-OS01 (10.0 μg/mL) and vorinostat (SAHA, 5 μM) for 24 hours. Rat C6 glioma cells were treated with NBM-C-BX-OS01 (7.5 μg/mL) and vorinostat (SAHA, 5 μM) for 6 hours. Human lung cancer A549 cells were treated with NBM-C-BA-OS01 (7.5 μg/mL) and vorinostat (SAHA, 5 μM) for 6 hours. The treated cells were fixed in 80% methanol for 30 minutes and then washed 3 times with PBS solution. Cells were permeabilized with 0.3% Triton X-100 for 30 minutes, and then blocked in 10% fetal bovine serum (FBS) in PBS-T (0.1% Twin 20 in PBS) for 1 hour. The treated cells were detected with primary antibody against acetyl-Histone H3, acetyl-tubulin, and Gelsolin.

Rat C6 glioma cells = experiment: Inhibition of cancer cell growth and change of morphology; settings: for inhibition of cell growth: Rat C6 glioma cells
Procedure: (§2) Three cancer cell lines, Rat C6 giloma cells, Human breast cancer MCF-7 cells, and Human lung cancer A549 cells, were cultured in Dulbecco's modified Eagle's medium (DMEM; Gibco) containing 10% fetal bovine serum (FBS) and 1% penicillin/streptomycin. All three cell lines were maintained at 37° C. in a humidified atmosphere of 95% air and 5% CO2. For the experiments, the cells were seeded in 6-well plates. After 24 hours, the cells were treated with different concentrations of the various compounds.
(§3) Five cancer cell lines, Rat C6 giloma cells, Human breast cancer MCF-7 cells, Human glioma Hs683 cells, Human glioblastoma 05-MG cells, and Human lung cancer A549 cells, were cultured in Dulbecco's modified Eagle's medium (DMEM; Gibco) containing 10% fetal bovine serum (FBS) and 1% penicillin/streptomycin, and were kept at 37° C. in a humidified atmosphere of 95% air and 5% CO2. Human breast cancer. MDA-MB-231 cells were cultured in L-15 medium (Gibco) containing 10% fetal bovine serum (FBS), 1% penicillin/streptomycin, and 2 mM glutamine, and were maintained at 37° C. in a humidified atmosphere of 95% air and 0% CO2. For these experiments, the cells were seeded in 6-well plates or a 60-mm dish. After 24 hours, the cells were treated with different concentrations of the various compounds. […] Human glioblastoma 05-MG cells were treated with NBM-C-BCX-OS01 (1.0, 2.0, 4.0 μg/mL) and NBM-C-BMX-OS01 (1.0, 2.0, 4.0 μg/mL) for 72 hours (see FIG. 5(e)). […] The results were counted by a trypan blue exclusion assay (see FIG. 6(b)).

[2] = tested on: Human breast cancer MCF-7 cells; experiment: as above
Procedure: as §2, §3

[3] = tested on: acetyl-Histone H3, acetyl-Histone H4, acetyl-tubulin, p21 in Human breast cancer MCF-7 cells; experiment: Immunoblotting of hyperacetylated histone, tubulin and p21; settings: 10 μg/mL (7.5 μg/mL elsewhere in the source) for 1, 2, 3 and 4 hrs (FIG. 2(d))
Procedure: (§4) Rat C6 glioma cells and Human breast cancer MCF-7 cells were seeded 5×10^5 cells in a 60-mm dish or 1×10^6 cells in a 100-mm dish. After 24 hours, Rat C6 glioma cells were treated with various concentrations of NBM-HB-OS01 (2.5, 5.0, 7.5, 10.0 μg/mL) for 72 hours and were treated with 10.0 μg/mL. NBM-HB-OS01 for 1, 2, 3, and 4 hours. Human breast cancer MCF-7 cells were treated with 7.5 μg/mL NBM-C-BX-OS01 for 1, 2, 3, and 4 hours.

[4] = tested on: acetyl-tubulin in Rat C6 glioma cells; experiment: Immunostaining of HDAC associated proteins; settings: 7.5 μg/mL, 6 hrs (FIG. 2(e))
Procedure: as §1

[5] = tested on: Human lung cancer A549 cells; experiment: Inhibition of cancer cell growth
Procedure: as §2, §3

[6] = tested on: acetyl-Histone H3, acetyl-Histone H4, acetyl-tubulin, p21 in Rat C6 glioma cells; experiment: Immunoblotting of hyperacetylated histone, tubulin and p21
Procedure: as §4

[7] = tested on: Gelsolin in Human breast cancer MCF-7 cells; experiment: Immunostaining of HDAC associated proteins; settings: 10 μg/mL, 24 hrs (FIG. 1(g))
Procedure: as §1

[8] = tested on: Human lung cancer A549 cells; experiment: Cell cycle analysis by flow cytometry (propidium iodide); settings: A549 cells, 2.5, 5.0, 7.5, 10.0 μg/mL, 24 hours (FIG. 1(c))
Procedure: Human lung cancer A549 cells, Human glioma Hs683 cells and Human glioblastoma 05-MG cells were seeded 1×10^6 cells in a 100-mm dish. After 24 hours of incubation in DMEM+10% BSA, Human lung cancer A549 cells were treated with NBM-HB-OS01 (2.5, 5.0, 7.5, 10.0 μg/mL) for 24 hours and were treated with NBM-C-BCX-OS01 (2.5, 5.0, 7.5 μg/mL) and NBM-C-BMX-OS01 (2.5, 5, 7.5 μg/mL) for 72 hours. Human glioblastoma 05-MG cells were treated with NBM-C-BCX-OS01 (1.0, 2.0, 4.0 μg/mL) and NBM-C-BMX-OS01 (1.0, 2.0, 4.0 μg/mL) for 72 hours. Human glioma Hs683 cells were treated with NBM-C-BCX-OS01 (1.0, 2.0, 4.0 μg/mL). For cell cycle analysis, cells were fixed in 80% ethanol for 1 hour (or overnight) at −20° C. and then incubated with 2 μg/mL RNase A for 30 minutes at 37° C. Cells were stained with propidium iodide ([…] PI) in PBS and analyzed using a Becton Dickinson flow cytometer, BD FACScan and CellQuest acquisition and analysis programs. […] Human glioma Hs683 cells were treated with NBM-C-BCX-OS01 (1.0, 2.0, 4.0 μg/mL) for 72 hours.

[9] = tested on: Human colon cancer HT-29 cells; experiment: Inhibition of cancer cell growth; settings: various concentrations, 48 hrs (FIG. 1(b))
[10] = tested on: p21 mRNA in Rat C6 glioma cells; experiment: RT-PCR of cell-cycle related mRNA expression; settings: 48 hrs, GAPDH internal control (FIG. 1(d))
Procedure: The cell-cycle related mRNA expression was examined by RT-PCR. The total RNA was isolated from the treated Rat C6 glioma cells using the RNeasy Mini Kit (Qiagen) as described by the manufacturer. The cDNA was produced from 500 ng of total RNA using ReverTra-Plus™ (TOYOBO).

[11] = various concentrations, 48 hrs (FIG. 1(a), 2(a))
[12] = Rat C6 glioma cells, 2.5, 5.0, 7.5, 10.0 μg/mL, 72 hrs, western blotting (FIG. 1(e))

## COc1ccc(/C=C/C(=O)Nc2ccccc2N)c(OCc2ccccc2)c1CC=C(C)C [NBM-C-BA-OS01, (E)-2-Benzoxy-3-prenyl-4-methoxy-N-(2-aminophenyl) cinamide]
[1]
  acetylation of Histone H3 protein: Hyperacetylation of Histone H3 protein was detected; also recorded: could induce the HDAC associated proteins expression
Rat C6 glioma cells; 7.5 μg/mL, 48 hrs (FIG. 4)
  inhibition of cell growth: inhibited the Rat C6 glioma cell growth
Rat C6 glioma cells; Rat C6 glioma cells, 2.5, 5.0, 7.5 μg/mL, 72 hrs (FIG. 3(b))
  changes in morphology: exhibited changes in morphology
Rat C6 glioma cells; 24 hrs, NBM-C-BA-OS01 5 μg/mL, others 2.5, 5.0 μg/mL (FIG. 5(a))
  inhibition of cell growth: inhibited the cell growth
[2]; MCF-7 cells, 2.5, 5.0, 7.5 μg/mL, 72 hrs (FIG. 3(a))
  changes in morphology: exhibited changes in morphology

## COc1ccc(/C=C\C(=O)NO)c(OCc2ccccc2)c1CC=C(C)C [NBM-C-BX-OS01, (Z)-2-Benzoxy-3-prenyl-4-methoxy-N-hydroxy-cinamide]
[3]
  expression of acetylated H3: increased in a dose-dependent manner
  expression of acetylated H4: increased in a dose-dependent manner
  expression of acetylated-tubulin: increased in a dose-dependent manner
  expression of p21: increased in a dose-dependent manner
[4]
  acetylated tubulin protein expression: Overexpression of acetylated tubulin protein was observed; also recorded: could induce the HDAC associated proteins expression
[5]; 72 hrs, NBM-C-BX-OS01 7.5, others 2.5, 5.0, 7.5 μg/mL (FIG. 5(b))
  cell growth inhibition: induced A549 cells growth inhibition in a dose-dependent manner; also recorded: induced A549 cell growth inhibition in dose-dependent amounts
[5]; various concentrations, 48 hrs (FIG. 2(c))
  inhibition of cell growth: Inhibition of cancer cells growth was shown; also recorded: arrested the cell growth
Rat C6 glioma cells; [11]
  inhibition of cell growth: Inhibition of cancer cells growth was shown; also recorded: arrested the cell growth
[2]; MCF-7 cells, various concentrations, 24 hrs (FIG. 2(b))
  inhibition of cell growth: Inhibition of cancer cells growth was shown; also recorded: arrested the cell growth

## COc1ccc(/C=C\C(=O)OCc2ccccc2)c(OCc2ccccc2)c1CCC(C)(C)O [NBM-HB-OS01]
[6]; Rat C6 glioma cells, 10 μg/mL for 1, 2, 3 and 4 hrs (FIG. 1(f))
  accumulation of p21: seen in a dose-dependent manner
[6]; [12]
  accumulation of hyperacetylated histone H3: detected in a dose-dependent manner
  accumulation of hyperacetylated histone H4: detected in a dose-dependent manner
  accumulation of p21: detected in a dose-dependent manner
[7]
  Gelsolin protein expression: Overexpression of Gelsolin protein was observed; also recorded: could induce the HDAC associated proteins expression
[8]
  cell cycle arrest phase: arrested the human lung cancer A549 cells on the G0/G1 phase in a dose-dependent manner
[9]
  inhibition of cell growth: Inhibition of cancer cell growth
[9]; listed as NBM-HB-HB-OS01
  inhibition of cell growth: Inhibition of cancer cells was shown
[10]
  p21 mRNA (gene) expression: increased p21 gene expression; also recorded: induced p21 mRNA expression
Rat C6 glioma cells; [11]
  inhibition of cell growth: Inhibition of cancer cell growth
Rat C6 glioma cells; various concentrations, 48 hrs (FIG. 1(a), 2(a)), listed as NBM-HB-HB-OS01
  inhibition of cell growth: Inhibition of cancer cells was shown
